Results on 29 compounds are retold here after patent US11046699B2, “Pyrazolo-pyrimidin-amino-cycloalkyl compounds and their therapeutic uses” (RAPT THERAPEUTICS, INC., priority 2018, dated 2021).

Counter-ions that a name gives are not always drawn. Like-named read-outs stand apart in the source and are kept apart here.

This assay concerns the target GCN2 (Homo sapiens, UniProt Q9P2K8). Briefly: GCN2 enzymatic endpoint assay: phosphorylation of GFP-eIF2α measured by TR-FRET (Lanthascreen). In kind it is biochemical. The procedure, abridged: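 Phosphorylated eIF2α read by Lanthascreen TR-FRET (acceptor 520 nm over donor 495 nm) after EDTA stop. The reaction ran 90 min at room temperature on 80 nM GFP-eIF2α with 2 μM ATP.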

Setting [1] is: tested as described in Example 77, compound and/or hydrochloride, dihydrochloride or trifluoroacetic acid salt, read-out: IC 50 Activity.

GCN2, sequence (Q9P2K8 whole entry): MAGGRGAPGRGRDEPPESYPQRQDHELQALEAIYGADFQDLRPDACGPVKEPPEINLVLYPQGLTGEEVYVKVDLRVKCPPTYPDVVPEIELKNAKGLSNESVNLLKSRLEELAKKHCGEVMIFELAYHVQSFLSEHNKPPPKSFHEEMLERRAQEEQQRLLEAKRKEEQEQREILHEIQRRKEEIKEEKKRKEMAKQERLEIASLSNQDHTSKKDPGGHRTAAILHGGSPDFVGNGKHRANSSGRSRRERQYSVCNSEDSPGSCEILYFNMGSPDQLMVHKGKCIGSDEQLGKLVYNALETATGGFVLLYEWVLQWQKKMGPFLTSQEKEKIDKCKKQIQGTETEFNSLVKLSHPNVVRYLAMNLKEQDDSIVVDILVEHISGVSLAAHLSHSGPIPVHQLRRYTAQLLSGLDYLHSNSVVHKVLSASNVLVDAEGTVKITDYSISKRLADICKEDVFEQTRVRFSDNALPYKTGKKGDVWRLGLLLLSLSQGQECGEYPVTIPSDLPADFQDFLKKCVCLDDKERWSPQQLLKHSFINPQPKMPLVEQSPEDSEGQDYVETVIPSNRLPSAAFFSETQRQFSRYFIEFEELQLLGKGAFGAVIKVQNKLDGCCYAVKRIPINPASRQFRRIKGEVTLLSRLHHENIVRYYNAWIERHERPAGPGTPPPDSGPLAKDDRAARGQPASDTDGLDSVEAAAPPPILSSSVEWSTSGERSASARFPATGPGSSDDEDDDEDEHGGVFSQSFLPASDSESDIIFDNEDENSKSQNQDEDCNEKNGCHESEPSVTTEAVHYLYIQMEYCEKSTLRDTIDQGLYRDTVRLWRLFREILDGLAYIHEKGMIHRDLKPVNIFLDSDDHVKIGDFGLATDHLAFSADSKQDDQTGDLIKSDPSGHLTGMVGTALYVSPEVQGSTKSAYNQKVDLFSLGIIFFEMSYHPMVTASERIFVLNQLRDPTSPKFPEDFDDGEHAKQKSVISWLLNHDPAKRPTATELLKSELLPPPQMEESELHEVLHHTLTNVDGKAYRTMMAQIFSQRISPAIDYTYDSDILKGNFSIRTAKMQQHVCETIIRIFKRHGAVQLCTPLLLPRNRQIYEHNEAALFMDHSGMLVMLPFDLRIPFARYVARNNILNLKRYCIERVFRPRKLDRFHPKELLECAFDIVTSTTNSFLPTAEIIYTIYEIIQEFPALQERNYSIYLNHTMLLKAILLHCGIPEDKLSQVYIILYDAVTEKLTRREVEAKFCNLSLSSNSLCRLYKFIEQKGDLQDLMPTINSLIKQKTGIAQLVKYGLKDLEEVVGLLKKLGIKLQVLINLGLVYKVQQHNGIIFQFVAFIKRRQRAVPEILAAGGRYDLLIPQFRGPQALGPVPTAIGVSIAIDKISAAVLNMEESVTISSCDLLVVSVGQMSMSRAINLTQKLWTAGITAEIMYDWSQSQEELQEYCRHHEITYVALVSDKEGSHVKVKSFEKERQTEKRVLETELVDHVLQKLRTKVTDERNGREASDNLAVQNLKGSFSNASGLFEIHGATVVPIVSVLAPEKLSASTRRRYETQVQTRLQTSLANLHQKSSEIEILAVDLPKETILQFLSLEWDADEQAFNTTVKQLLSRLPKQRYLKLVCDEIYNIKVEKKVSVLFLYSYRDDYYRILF

On to `CNC(=O)[C@]1(C)CC[C@@H](Nc2ncc3c(Br)nn(-c4ccc(-c5ncco5)c(OCCO)c4)c3n2)C1` [(1R,3R)-3-[[3-bromo-1-[3-(2-hydroxy-ethoxy)-4-oxazol-2-yl-phenyl]pyrazolo [3,4-d]pyrimidin-6-yl]amino]-N,1-dimethyl-cyclopentanecarboxamide], for which the IC50 under setting [1] is less than 25 nM. Regarding `CNC(=O)[C@]1(C)CC[C@@H](Nc2ncc3c(Br)nn(-c4ccc5c(c4)CCN(S(C)(=O)=O)C5)c3n2)C1` [(1R,3R)-3-[[3-bromo-1-(2-methylsulfonyl-3,4-dihydro-1H-isoquinolin-6-yl)pyrazolo [3,4-d]pyrimidin-6-yl]amino]-N,1-dimethyl-cyclopentanecarboxamide], under setting [1], the IC50 lay in the range of 25 to 200 nM. Still for that read-out and setting: the figure for `O=C([C@@H]1CC[C@@H](Nc2ncc3c(Br)nn(-c4ccc5ncccc5c4)c3n2)C1)N1CCS(=O)(=O)CC1` [((1R,3R)-3-((3-bromo-1-(quinolin-6-yl)-1H-pyrazolo[3,4-d]pyrimidin-6-yl)amino)cyclo-pentyl)(1,1-dioxidothiomorpholino)methanone] is 25 to 200 nM. `CS(=O)(=O)CCNC(=O)[C@@H]1CC[C@@H](Nc2ncc3c(Br)nn(-c4cnn(-c5ccncc5)c4)c3n2)C1` [(1R,3R)-3-((3-bromo-1-(1-(pyridin-4-yl)-1H-pyrazol-4-yl)-1H-pyrazolo[3,4-d]pyrimidin-6-yl)amino)-N-(2-(methylsulfonyl)ethyl)cyclo-pentane-1-carboxamide]: the IC50 under setting [1] is 200 to 500 nM.

Consider `CC(CNC(=O)[C@@H]1CC[C@@H](Nc2ncc3c(Br)nn(-c4ccc5ncccc5c4)c3n2)C1)N1CCCC1` (stereo partly drawn) [(1R,3R)-3-((3-bromo-1-(quinolin-6-yl)-1H-pyrazolo[3,4-d]pyrimidin-6-yl)amino)-N-(2-(pyrrolidin-1-yl)propyl)cyclopentane-1-carboxamide], for which, under setting [1], the IC50 is 25 to 200 nM.

As to `COc1ccc(-n2nc(Br)c3cnc(N[C@@H]4CC[C@@H](C(=O)N5CCN(C)C(=O)C5)C4)nc32)cc1C#N` [5-(3-bromo-6-(((1R,3R)-3-(4-methyl-3-oxo-piperazine-1-carbonyl)cyclopentyl)amino)-1H-pyrazolo[3,4-d]pyrimidin-1-yl)-2-methoxybenzonitrile], the IC50 under setting [1] was 200 to 500 nM. On the same count and under the same terms, the value for `C[C@H]1C(=O)N(C)CCN1C(=O)[C@@H]1CC[C@@H](Nc2ncc3c(Br)nn(-c4cc(C#N)c5ncccc5c4)c3n2)C1` [6-(3-bromo-6-(((1R,3R)-3-((S)-2,4-dimethyl-3-oxopiperazine-1-carbonyl)cyclopentyl)amino)-1H-pyrazolo[3,4-d]pyrimidin-1-yl) quinoline-8-carbonitrile] was less than 25 nM. Still for that read-out and setting: the value for `CNC(=O)[C@]1(C)CCC(Nc2ncc3c(Br)nn(-c4ccc5c(c4)CCC(=O)N5)c3n2)C1` (stereo partly drawn) [(1R)-3-[[3-bromo-1-(2-oxo-3,4-dihydro-1H-quinolin-6-yl)pyrazolo[3,4-d]pyrimidin-6-yl]amino]-N,1-dimethyl-cyclopentane-carboxamide] was 25 to 200 nM; that for `O=C(N[C@@H]1CCOC1)[C@@H]1CC[C@@H](Nc2ncc3c(Br)nn(-c4ccc5ncccc5c4)c3n2)C1` [(1R,3R)-3-((3-bromo-1-(quinolin-6-yl)-1H-pyrazolo[3,4-d]pyrimidin-6-yl)amino)-N-((R)-tetrahydrofuran-3-yl)cyclopentane-1-carboxamide] was 25 to 200 nM.

For the compound `C[C@@]1(O)CC[C@@H](Nc2ncc3c(Br)nn(-c4cc(CCN)c5ncccc5c4)c3n2)C1`, the IC50 under setting [1] is less than 25 nM. As for `CNC(=O)[C@]1(C)CC[C@@H](Nc2ncc3c(Br)nn(-c4ccc5c(c4)n(C)c(=O)c(=O)n5C)c3n2)C1` [(1R,3R)-3-[[3-bromo-1-(1,4-dimethyl-2,3-dioxo-quinoxalin-6-yl)pyrazolo [3,4-d]pyrimidin-6-yl]amino]-N,1-dimethyl-cyclopentanecarboxamide], the IC50 under setting [1] was in the range of 25 to 200 nM.

As for `CNC(=O)[C@]1(C)CC[C@@H](Nc2ncc3c(Br)nn(-c4cc(CS(C)(=O)=O)c5nccnc5c4)c3n2)C1` [(1R,3R)-3-[[3-bromo-1-[8-(methyl-sulfonylmethyl)quinoxalin-6-yl]pyrazolo [3,4-d]pyrimidin-6-yl]amino]-N,1-dimethyl-cyclopentanecarboxamide], under setting [1], the IC50 lay in the range of 25 to 200 nM. For `CNC(=O)[C@]1(C)CC[C@@H](Nc2ncc3c(Br)nn(-c4ccc(OCC#N)cc4)c3n2)C1` [(1R,3R)-3-[[3-bromo-1-[4-(cyanomethoxy)phenyl]pyrazolo[3,4-d]pyrimidin-6-yl]amino]-N,1-dimethyl-cyclopentane-carboxamide], the IC50 under setting [1] was 25 to 200 nM. `CNC(=O)[C@]1(C)CC[C@@H](Nc2ncc3c(Br)nn(-c4cc(OC)c5c(c4)OCC(=O)N5C)c3n2)C1` [(1R,3R)-3-[[3-bromo-1-(5-methoxy-4-methyl-3-oxo-1,4-benzoxazin-7-yl)pyrazolo[3,4-d]pyrimidin-6-yl]amino]-N,1-dimethyl-cyclopentanecarboxamide]: under setting [1], the IC50 is less than 25 nM. Regarding `CNC(=O)[C@@]1(C)CC[C@@H](Nc2ncc3c(Br)nn(-c4ccc(OCCO)cc4)c3n2)C1` [(1S,3R)-3-[[3-bromo-1-[4-(2-hydroxy-ethoxy)phenyl]pyrazolo[3,4-d]pyrimidin-6-yl]amino]-N,1-dimethyl-cyclopentane-carboxamide], the IC50 under setting [1] was in the range of 25 to 200 nM. Same read-out and setting: the figure for `CNC(=O)[C@]1(C)CC[C@@H](Nc2ncc3c(Br)nn(-c4cc(OCC5(F)CNC5)cc(OC(F)(F)F)c4)c3n2)C1` [(1R,3R)-3-[[3-bromo-1-[3-[(3-fluoroazetidin-3-yl)methoxy]-5-(trifluoromethoxy)phenyl]pyrazolo[3,4-d]pyrimidin-6-yl]amino]-N,1-dimethyl-cyclopentanecarboxamide] is 25 to 200 nM; for `CC1(C(N)=O)CC[C@@H](Nc2ncc3c(Br)nn(-c4ccc(-c5ncco5)c(F)c4)c3n2)C1` (stereo partly drawn) [(3R)-3-[[3-bromo-1-(3-fluoro-4-oxazol-2-yl-phenyl)pyrazolo[3,4-d]pyrimidin-6-yl]amino]-1-methyl-cyclopentanecarboxamide] it is less than 25 nM; for `CNC(=O)[C@]1(C)CC[C@@H](Nc2ncc3c(Br)nn(-c4ccc(-c5nnc(CN)s5)cc4)c3n2)C1` [(1R,3R)-3-[[1-[4-[5-(aminomethyl)-1,3,4-thiadiazol-2-yl]phenyl]-3-bromo-pyrazolo [3,4-d]pyrimidin-6-yl]amino]-N,1-dimethyl-cyclopentanecarboxamide] it is 25 to 200 nM. Same read-out and setting: the value for `CNC(=O)[C@]1(C)CC[C@@H](Nc2ncc3c(Br)nn(-c4cc(Br)cc(CN)c4)c3n2)C1` was 25 to 200 nM; that for `NC(=O)C1(NC(=O)[C@@H]2CC[C@@H](Nc3ncc4c(Br)nn(-c5cc(F)c6ncccc6c5)c4n3)C2)CC1` [(1R,3R)-3-[[3-bromo-1-(8-fluoro-6-quinolyl)pyrazolo[3,4-d]pyrimidin-6-yl]amino]-N-(1-carbamoylcyclopropyl)cyclopentane-carboxamide] was 25 to 200 nM. Still for that read-out and setting: the figure for `CNC(=O)[C@]1(C)CC[C@@H](Nc2ncc3c(Br)nn(-c4ccc5nc(OC)ccc5c4)c3n2)C1` [(1R,3R)-3-[[3-bromo-1-(2-methoxy-6-quinolyl)pyrazolo[3,4-d]pyrimidin-6-yl]amino]-N,1-dimethyl-cyclopentane-carboxamide] is 25 to 200 nM; for `C[C@H](N)c1cc(Cl)cc(-n2nc(Br)c3cnc(N[C@@H]4CC[C@@](C)(C(=O)N5CCNCC5)C4)nc32)c1` [[(1R,3R)-3-[[1-[3-[(1S)-1-aminoethyl]-5-chloro-phenyl]-3-bromo-pyrazolo [3,4-d]pyrimidin-6-yl]amino]-1-methyl-cyclopentyl]-piperazin-1-yl-methanone] it is 25 to 200 nM. Regarding `O=C(NCc1ncco1)[C@@H]1CC[C@@H](Nc2ncc3c(Br)nn(-c4ccc5ncccc5c4)c3n2)C1` [(1R,3R)-3-((3-bromo-1-(quinolin-6-yl)-1H-pyrazolo[3,4-d]pyrimidin-6-yl)amino)-N-(oxazol-2-ylmethyl)cyclopentane-1-carboxamide], the IC50 under setting [1] fell in the range of 25 to 200 nM.

Turning to `CNC(=O)[C@]1(C(C)C)CC[C@@H](Nc2ncc3c(Br)nn(-c4cc(F)c5ncccc5c4)c3n2)C1` [Example 37, (1R,3R)-3-((3-bromo-1-(8-fluoroquinolin-6-yl)-1H-pyrazolo[3,4-d]pyrimidin-6-yl)amino)-1-isopropyl-N-methylcyclopentane-1-carboxamide hydrochloride], the IC50 (GCN2 biochemical IC50, 4 nM GCN2, 2 μM ATP, 80 nM GFP-eIF2α, 90 min RT, read-out: GCN2 activity) is less than 25 nM. As for `CNC(=O)[C@]1(C)CC[C@@H](Nc2ncc3c(Br)nn(-c4cc(F)c5nc(C)cc(O)c5c4)c3n2)C1` [(1R,3R)-3-[[3-bromo-1-(8-fluoro-4-hydroxy-2-methyl-6-quinolyl)pyrazolo[3,4-d]pyrimidin-6-yl]amino]-N,1-dimethyl-cyclopentanecarboxamide], the IC50 under setting [1] fell in the range of 25 to 200 nM.

In the case of `CNC(=O)[C@]1(C)CC[C@@H](Nc2ncc3c(Br)nn(-c4ccc5ncc(NC(=O)CCOC)cc5c4)c3n2)C1` [(1R,3R)-3-[[3-bromo-1-[3-(3-methoxy-propanoylamino)-6-quinolyl]pyrazolo[3,4-d]pyrimidin-6-yl]amino]-N,1-dimethyl-cyclopentanecarboxamide], under setting [1], the IC50 lay in the range of 25 to 200 nM.

Take `CNC(=O)[C@]1(C)CC[C@@H](Nc2ncc3c(Br)nn(-c4cc(Cl)cc(C(=O)N5CCNCC5)c4)c3n2)C1` [(1R,3R)-3-[[3-bromo-1-[3-chloro-5-(piperazine-1-carbonyl)phenyl]pyrazolo [3,4-d]pyrimidin-6-yl]amino]-N,1-dimethyl-cyclopentanecarboxamide]: under setting [1], the IC50 is 25 to 200 nM. On the same count and under the same terms, the value for `Cn1ccnc1[C@@H]1CC[C@@H](Nc2ncc3c(Br)nn(-c4ccc5ncccc5c4)c3n2)C1` (relative stereo) [3-bromo-N-(trans-3-(1-methyl-1H-imidazol-2-yl)cyclopentyl)-1-(quinolin-6-yl)-1H-pyrazolo[3,4-d]pyrimidin-6-amine] was 25 to 200 nM. On the same count and under the same terms, the value for `Cc1nnc(-c2ccc(-n3nc(Br)c4cnc(NC5CC(S(C)(=O)=O)C5)nc43)cc2)s1` (centres unmarked) [3-bromo-N-(3-methylsulfonylcyclobutyl)-1-[4-(5-methyl-1,3,4-thiadiazol-2-yl)phenyl] pyrazolo[3,4-d]pyrimidin-6-amine] was 25 to 200 nM.
